Experimental data as given in patent publication US6777425B2, “Isoquinoline compounds having antiinfective activity” (Genesoft Pharmaceuticals, Inc., priority 2001, dated 2004).
Values after ≈ are worked out from the molar mass of the structure shown.

Columns and labels:
[1] = tested on: B. cereus ATCC 11778; assay: NCCLS broth microdilution MIC, B. cereus; format: cell-based, Bacillus cereus; settings: organism A = B. cereus ATCC 11778; for MIC: Bacillus cereus, ATCC11778, read-out: Minimum Inhibitory Concentration (MIC)
Text: (§1) Compounds according to this invention were screened for their in vitro activities against selected species of bacteria and fungi. […]

[2] = tested on: C. albicans ATCC 38247; assay: Antifungal MIC, C. albicans; format: cell-based, Candida albicans; settings: organism B = C. albicans ATCC 38247; for MIC: Candida albicans, ATCC38247, read-out: Minimum Inhibitory Concentration (MIC)
Text: as §1

[3] = tested on: E. faecalis ATCC 29212; assay: NCCLS broth microdilution MIC, E. faecalis; format: cell-based; settings: organism C = E. faecalis ATCC 29212; for MIC: Enterococcus faecalis, ATCC29212, read-out: Minimum Inhibitory Concentration (MIC)
Text: as §1

[4] = tested on: E. faecium ATCC 51559; assay: NCCLS broth microdilution MIC, E. faecium (VRE); format: cell-based, Enterococcus faecium; settings: organism D = E. faecium ATCC 51559 (VRE)
Text: as §1

[5] = tested on: S. aureus ATCC 13709; assay: NCCLS broth microdilution MIC, S. aureus (MSSA); format: cell-based, Staphylococcus aureus; settings: organism E = S. aureus ATCC 13709 (MSSA); for MIC: Staphylococcus aureus, read-out: Minimum Inhibitory Concentration (MIC)
Text: as §1

[6] = tested on: S. aureus ATCC 27660; assay: NCCLS broth microdilution MIC, S. aureus (MRSA); format: cell-based, Staphylococcus aureus; settings: organism F = S. aureus ATCC 27660 (MRSA)
Text: as §1

[7] = tested on: S. epidermidis ATCC 12228; assay: NCCLS broth microdilution MIC, S. epidermidis; format: cell-based, Staphylococcus epidermidis; settings: organism G = S. epidermidis ATCC 12228
Text: as §1

[8] = tested on: S. pneumoniae ATCC 49619; assay: NCCLS broth microdilution MIC, S. pneumoniae ATCC 49619; format: cell-based, Streptococcus pneumoniae; settings: organism H = S. pneumoniae ATCC 49619; for MIC: Streptococcus pneumoniae, ATCC49619, read-out: Minimum Inhibitory Concentration (MIC)
Text: as §1

[9] = tested on: S. pneumoniae ATCC 51422; assay: NCCLS broth microdilution MIC, S. pneumoniae (PRSP); format: cell-based, Streptococcus pneumoniae; settings: organism I = S. pneumoniae ATCC 51422 (PRSP)
Text: as §1

[10] = target: target sequence AGTACT, 310 base pair dsDNA restriction fragment of Plasmid A; assay: Quantitative DNase I footprint titration, AGTACT; format: binding; settings: 310 bp/A, pH 7.0, 22° C., read-out: Dissociation Constant Kd
[11] = target: target sequence ACAATTAAT, 352 bp fragment of Plasmid B; assay: Quantitative DNase I footprint titration, […]; format: binding; settings: 352 bp/B, pH 7.0, 22° C., read-out: Dissociation Constant Kd
[12] = target: target sequence AATTAATCAT, 352 base pair dsDNA restriction fragment of Plasmid B; assay: Quantitative DNase I footprint titration, […]; format: binding; settings: 352 bp/B, pH 7.0, 22° C., read-out: Dissociation Constant Kd
[13] = tested on: methicillin resistant Staphylococcus aureus ATCC 33591; assay: Murine neutropenic thigh model; format: in vivo; settings: thigh at 6 hr, neutropenic CF1 mice
Procedure: The suspension was diluted 1:100 in phosphate buffered saline (pH 7.2) for a final concentration of 10^6 cfu/mL.
Outbred female CF1 mice (approx. 20 gram body weight) were rendered neutropenic by treatment with cyclophosphamide (200 mg/kg body weight, intraperitoneal injection) at 2 and 4 days prior to inoculation. Groups of 5 mice were inoculated with 0.05 mL of the bacteria (approx. 10^6 cfu/mL) into the anterior thigh. Each group was treated intravenously two hours post infection with vehicle (phosphate buffered saline) or test compound. The mice were sacrificed at either 6 or 24 hrs after treatment and thighs were collected aseptically. Each thigh was weighed, placed into sterile saline, and homogenized. The tissue homogenates were diluted appropriately for plating on agar plates. Colony counts were recorded (cfu/gram) and compared to control groups.

[14] = 50 mg/kg intravenously two hours post infection

Minimum Inhibitory Concentration (MIC) [1] | Minimum Inhibitory Concentration (MIC) [2] | Minimum Inhibitory Concentration (MIC) [3] | Minimum Inhibitory Concentration (MIC) [4] | Minimum Inhibitory Concentration (MIC) [5] | Minimum Inhibitory Concentration (MIC) [6] | Minimum Inhibitory Concentration (MIC) [7] | Minimum Inhibitory Concentration (MIC) [8] | Minimum Inhibitory Concentration (MIC) [9] | Kd [10] | MIC [1] | MIC [2] | MIC [3] | MIC [5] | MIC [8] | Kd [12] | SMILES | Colony Count (log cfu/gram), Compound [13, 14] | further results
+++ (+++ = MIC ≦ 4) | >32 µg/mL | +++ (+++ = MIC ≦ 4) | +++ (+++ = MIC ≦ 4) | +++ (+++ = MIC ≦ 4) | +++ (+++ = MIC ≦ 4) | +++ (+++ = MIC ≦ 4) | +++ (+++ = MIC ≦ 4) | +++ (+++ = MIC ≦ 4) | 50 nM | – | – | – | – | – | – | Cn1cc(NC(=O)c2cc3ccccc3cn2)cc1C(=O)Nc1cc(C(=O)Nc2cc(C(=O)NCCN3CCCCC3)ns2)n(C)c1 [Ib-59] | – | Kd [11]: 1 nM
– | – | – | – | – | – | – | – | – | < 100 nM | < 4 µg/mL | > 32 µg/mL | < 4 µg/mL | < 4 µg/mL | < 4 µg/mL | 5 nM | Cn1cc(NC(=O)c2cc3ccccc3cn2)cc1C(=O)Nc1cc(C(=O)Nc2cc(C(=O)NCCN3CCOCC3)n(CCN3CCOCC3)c2)n(C)c1 [Ib-56] | – | MIC ([4]; Enterococcus faecium, read-out: Minimum Inhibitory Concentration (MIC)): 4 to 12 µg/mL (≈ 5.33 to 16 µM); MIC ([6]; Staphylococcus aureus, read-out: Minimum Inhibitory Concentration (MIC)): < 4 µg/mL; MIC ([7]; Staphylococcus epidermidis, ATCC12228, read-out: Minimum Inhibitory Concentration (MIC)): < 4 µg/mL; MIC ([9]; Streptococcus pneumoniae, read-out: Minimum Inhibitory Concentration (MIC)): < 4 µg/mL
+++ (+++ = MIC ≦ 4) | + (+ = 12 ≦ MIC ≦ 32) | +++ (+++ = MIC ≦ 4) | – | +++ (+++ = MIC ≦ 4) | +++ (+++ = MIC ≦ 4) | – | +++ (+++ = MIC ≦ 4) | – | – | – | – | – | – | – | – | Cn1cc(NC(=O)c2cc3ccccc3cn2)cc1C(=O)Nc1cc(C(=O)Nc2cc(C(=O)NCCN3CCCCC3)n(CCN3CCCCC3)c2)n(C)c1 [Ib-68] | 6.36 log cfu/gram | –
– | – | – | – | – | – | – | – | – | 10 nM | < 4 µg/mL | > 32 µg/mL | < 4 µg/mL | < 4 µg/mL | < 4 µg/mL | 5 nM | Cn1cc(NC(=O)c2cc(NC(=O)c3cc(NC(=O)c4cc5ccccc5cn4)no3)cn2C)cc1C(=O)NCCN1CCOCC1 [Ib-60] | – | –
+++ (+++ = MIC ≦ 4) | >32 µg/mL | +++ (+++ = MIC ≦ 4) | – | +++ (+++ = MIC ≦ 4) | +++ (+++ = MIC ≦ 4) | – | +++ (+++ = MIC ≦ 4) | – | – | – | – | – | – | – | – | Cn1cc(NC(=O)c2cc(NC(=O)c3cc(NC(=O)c4cc5ccccc5cn4)cn3C)c[nH]2)cc1C(=O)NCCN1CCOCC1 [Ib-67] | 5.79 log cfu/gram | Colony Count (log cfu/gram), Compound ([13]; 25 mg/kg intravenously two hours post infection): 6.61 log cfu/gram
+++ (+++ = MIC ≦ 4) | +++ (+++ = MIC ≦ 4) | +++ (+++ = MIC ≦ 4) | ++ (++ = 4 < MIC < 12) | +++ (+++ = MIC ≦ 4) | +++ (+++ = MIC ≦ 4) | +++ (+++ = MIC ≦ 4) | +++ (+++ = MIC ≦ 4) | +++ (+++ = MIC ≦ 4) | – | – | – | – | – | – | – | Cc1cc(NC(=O)c2cc(NC(=O)c3cc(NC(=O)c4cc5ccccc5cn4)cn3C)cn2CCCN(C)C)sn1 [Ib-66] | 6.66 log cfu/gram | –
